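48-hour exposure; five concentrations; linearly interpolated endpoints. TGI denotes the concentration required for complete inhibition of growth.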
Legend:
Experiment in all cases: inhibition of tumour cell growth, NCI panel, 48 h
OVCAR-3 ovarian = test system: OVCAR-3 ovarian
OVCAR-4 ovarian = test system: OVCAR-4 ovarian
HCT-15 colon = test system: HCT-15 colon
KM12 colon = test system: KM12 colon
SNB-75 CNS = test system: SNB-75 CNS
T-47D breast = test system: T-47D breast
UACC-257 melanoma = test system: UACC-257 melanoma
TK-10 renal = test system: TK-10 renal
SK-MEL-5 melanoma = test system: SK-MEL-5 melanoma
EKVX NSCLC = test system: EKVX NSCLC
ACHN renal = test system: ACHN renal
OVCAR-5 ovarian = test system: OVCAR-5 ovarian
DU-145 prostate = test system: DU-145 prostate
NCI-H460 lung = test system: NCI-H460 lung
SK-OV-3 ovarian = test system: SK-OV-3 ovarian
MDA-MB-231 breast = test system: MDA-MB-231 breast
HOP-92 NSCLC = test system: HOP-92 NSCLC
NCI/ADR-RES ovarian = test system: NCI/ADR-RES ovarian
SNB-19 CNS = test system: SNB-19 CNS
CCRF-CEM leukemia = test system: CCRF-CEM leukemia

Row | Compound | TGI (OVCAR-3 ovarian) [µM] | TGI (OVCAR-4 ovarian) [µM] | TGI (HCT-15 colon) [µM] | TGI (KM12 colon) [µM] | TGI (SNB-75 CNS) [µM] | TGI (T-47D breast) [µM] | TGI (UACC-257 melanoma) [µM] | TGI (TK-10 renal) [µM] | TGI (SK-MEL-5 melanoma) [µM] | TGI (EKVX NSCLC) [µM] | TGI (ACHN renal) [µM] | TGI (OVCAR-5 ovarian) [µM] | TGI (DU-145 prostate) [µM] | TGI (NCI-H460 lung) [µM] | TGI (SK-OV-3 ovarian) [µM] | TGI (MDA-MB-231 breast) [µM] | TGI (HOP-92 NSCLC) [µM] | TGI (NCI/ADR-RES ovarian) [µM] | TGI (SNB-19 CNS) [µM] | TGI (CCRF-CEM leukemia) [µM]
1 | Nc1c2c(nc3ccccc13)CCCc1ccccc1-2 | > 100 | 84.8 | 35.5 | 31.2 | 26.6 | 37.5 | 27.1 | 18.8 | 21 | 38.9 | 23 | 34.6 | 80.3 | 14.5 | > 100 | 19.8 | 22.6 | 69.7 | 52.9 | –
2 | CCOP(C)(=O)/C(Cc1ccc(OC)c(OC)c1)=N\O (centres undefined) | > 100 | > 100 | > 100 | > 100 | > 100 | > 100 | – | > 100 | > 100 | > 100 | > 100 | > 100 | > 100 | > 100 | > 100 | > 100 | > 100 | > 100 | > 100 | > 100
3 | COCn1c(C)c(C)c2c(=O)oc(C)nc21 | – | > 100 | > 100 | > 100 | > 100 | > 100 | > 100 | > 100 | > 100 | > 100 | > 100 | > 100 | > 100 | > 100 | > 100 | > 100 | > 100 | > 100 | > 100 | > 100
4 | CN(C)Cc1cc(C(=O)/C=C/c2ccc(F)cc2)cc(CN(C)C)c1O | 50.9 | > 100 | 30.3 | 48.9 | 87.2 | 46.3 | 31 | > 100 | 35.5 | > 100 | 78.3 | > 100 | > 100 | 22.3 | – | > 100 | 97.5 | 86.2 | > 100 | 78
5 | Cc1nn(-c2ccccc2)c2nc3ccc(Cl)cc3c(-c3ccccc3)c12 | > 100 | > 100 | > 100 | > 100 | > 100 | > 100 | – | > 100 | > 100 | > 100 | > 100 | > 100 | > 100 | > 100 | > 100 | > 100 | > 100 | > 100 | > 100 | > 100
6 | O=S(=O)(O)c1ccccc1N=Nc1ccc(N=Nc2c(O)ccc3ccccc23)c(S(=O)(=O)O)c1 | > 100 | > 100 | > 100 | > 100 | > 100 | > 100 | > 100 | > 100 | > 100 | > 100 | > 100 | > 100 | > 100 | – | > 100 | > 100 | > 100 | > 100 | > 100 | > 100
